Target: Tie-2 (Homo sapiens, UniProt Q02763)
Experiment: Tie-2 tyrosine kinase activity: kinase-dependent ATP consumption (pEY substrate, luciferase/luciferin chemiluminescence) or 33P-ATP incorporation into substrate
Format: biochemical
Settings: Tie-2 (human enzyme) inhibition, Table 2, class symbols A-D
Method: One measure of inhibition is Ki. […] The Ki for a compound is determined from the IC50 based on three assumptions. First, only one compound molecule binds to the enzyme and there is no cooperativity. […] Third, the enzymatic rate of the enzyme-inhibitor complex is zero. The rate (i.e., compound concentration) data are fitted to the equation:
[formula] where V is the observed rate, Vmax, is the rate of the free enzyme, I0 is the inhibitor concentration, E0 is the enzyme concentration, and Kd is the dissociation constant of the enzyme-inhibitor complex.
Tyrosine kinase activity is determined by 1) measurement of kinase-dependent ATP consumption by in the presence of a generic substrate such as polyglutamine, tyrosine (pEY), by luciferase/luciferin-mediated chemiluminescence or; 2) incorporation of radioactive phosphate derived from ^33P-ATP into a generic substrate which has been absorbed onto the well surface of polystyrene microtiter plates. Phosphorylated substrate products are quantified by scintillation spectrometry.
Inhibition is indicated as IC50 with following key: A=IC50 less than 50 nM, B=IC50 greater than 50 nM, but less than or equal to 1000 nM, C=IC50 greater than 1000 nM, but less than 10,000 nM, and D=IC50 10,000 nM or greater. The abbreviation for human enzyme, Tie-2, is defined as tyrosine kinase with immunoglobulin and EGF repeats.

Chain of Tie-2 (Q02763 23-1124): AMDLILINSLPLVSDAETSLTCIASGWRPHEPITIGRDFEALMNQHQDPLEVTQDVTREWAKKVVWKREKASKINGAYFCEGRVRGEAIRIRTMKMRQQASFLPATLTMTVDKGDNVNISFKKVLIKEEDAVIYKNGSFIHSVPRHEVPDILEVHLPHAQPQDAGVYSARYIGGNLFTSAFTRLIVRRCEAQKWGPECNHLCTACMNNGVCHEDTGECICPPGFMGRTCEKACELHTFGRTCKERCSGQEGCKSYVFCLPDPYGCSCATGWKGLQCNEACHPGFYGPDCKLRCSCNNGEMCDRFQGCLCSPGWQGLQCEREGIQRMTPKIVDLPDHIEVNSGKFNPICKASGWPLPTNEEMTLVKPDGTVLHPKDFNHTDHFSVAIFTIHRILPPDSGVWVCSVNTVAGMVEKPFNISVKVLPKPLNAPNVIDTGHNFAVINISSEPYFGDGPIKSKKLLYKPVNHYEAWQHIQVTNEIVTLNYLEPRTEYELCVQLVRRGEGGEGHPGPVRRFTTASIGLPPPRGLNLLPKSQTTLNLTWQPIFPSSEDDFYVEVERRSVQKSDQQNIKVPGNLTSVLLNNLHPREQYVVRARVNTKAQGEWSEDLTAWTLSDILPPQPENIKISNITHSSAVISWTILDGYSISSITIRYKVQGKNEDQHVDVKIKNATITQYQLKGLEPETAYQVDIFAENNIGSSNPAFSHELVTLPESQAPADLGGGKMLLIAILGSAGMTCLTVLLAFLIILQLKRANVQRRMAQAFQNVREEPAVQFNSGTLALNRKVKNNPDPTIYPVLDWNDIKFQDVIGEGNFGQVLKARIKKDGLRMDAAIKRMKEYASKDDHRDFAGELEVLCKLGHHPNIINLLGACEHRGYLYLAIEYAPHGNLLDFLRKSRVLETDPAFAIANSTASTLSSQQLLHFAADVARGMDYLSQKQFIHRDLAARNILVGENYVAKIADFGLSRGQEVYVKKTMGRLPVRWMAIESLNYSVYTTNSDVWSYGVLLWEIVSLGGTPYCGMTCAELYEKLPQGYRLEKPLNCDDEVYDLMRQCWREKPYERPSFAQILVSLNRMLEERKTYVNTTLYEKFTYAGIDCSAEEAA

Structure (SMILES): COc1ccc(-c2nc(-c3ccncc3)nn2CCN(C(=O)Nc2c(F)cccc2F)C2CCCC2)cc1Cl [Entry 117, N-(2-{5-[3-chloro-4-(methyloxy)phenyl]-3-pyridin-4-yl-1H-1,2,4-triazol-1-yl}ethyl)-N-cyclopentyl-N′-(2,6-difluorophenyl)urea]
- IC50: ≥ 10 µM

Structure (SMILES): O=C(Cc1cccc2ccccc12)N(CCn1nc(-c2ccncc2)nc1-c1ccc(Cl)cc1Cl)C1CCCC1 [Entry 74, N-cyclopentyl-N-{2-[5-(2,4-dichlorophenyl)-3-pyridin-4-yl-1H-1,2,4-triazol-1-yl]ethyl}-2-naphthalen-1-ylacetamide]
- IC50: < 0.05 µM

Structure (SMILES): COc1ccc(-c2nc(-c3ccncc3)nn2CCN(C(=O)Nc2cc(OC)c(OC)c(OC)c2)C2CCCC2)cc1Cl [Entry 94, N-(2-{5-[3-chloro-4-(methyloxy)phenyl]-3-pyridin-4-yl-1H-1,2,4-triazol-1-yl}ethyl)-N-cyclopentyl-N′-[3,4,5-tris(methyloxy)phenyl]urea]
- IC50: ≥ 10 µM

Structure (SMILES): COc1ccc(-c2nc(-c3ccncc3)n(CC(=O)NC3CCCC3)n2)cc1Cl [Entry 5, 2-{3-[3-chloro-4-(methyloxy)phenyl]-5-pyridin-4-yl-1H-1,2,4-triazol-1-yl}-N-cyclopentylacetamide]
- IC50: ≥ 10 µM

Structure (SMILES): COc1ccc(-c2nc(-c3ccncc3)nn2CCN(C(=O)Nc2ccc(C)c(Cl)c2)C2CCCC2)cc1Cl [Entry 129, N-(2-{5-[3-chloro-4-(methyloxy)phenyl]-3-pyridin-4-yl-1H-1,2,4-triazol-1-yl}ethyl)-N′-(3-chloro-4-methylphenyl)-N-cyclopentylurea]
- IC50: ≥ 10 µM

Structure (SMILES): COC(=O)CCn1nc(-c2ccc(OC)c(Cl)c2)nc1-c1ccncc1 [Entry 7, methyl 3-{3-[3-chloro-4-(methyloxy)phenyl]-5-pyridin-4-yl-1H-1,2,4-triazol-1-yl}propanoate]
- IC50: ≥ 10 µM

Structure (SMILES): O=C(Cc1cccc2ccccc12)N(CCn1nc(-c2ccc(C(F)(F)F)cc2)nc1-c1ccncc1)C1CCCC1 [Entry 77, N-cyclopentyl-2-naphthalen-1-yl-N-(2-{5-pyridin-4-yl-3-[4-(trifluoromethyl)phenyl]-1H-1,2,4-triazol-1-yl}ethyl)acetamide]
- IC50: ≥ 10 µM

Structure (SMILES): COc1ccc(-c2nc(-c3ccncc3)nn2CCN(C(=O)Cc2ccc3ccccc3c2)C2CCCC2)cc1Cl [Entry 48, N-(2-{5-[3-chloro-4-(methyloxy)phenyl]-3-pyridin-4-yl-1H-1,2,4-triazol-1-yl}ethyl)-N-cyclopentyl-2-naphthalen-2-ylacetamide]
- IC50: ≥ 10 µM

Structure (SMILES): CCOc1ccc(NC(=O)N(CCn2nc(-c3ccncc3)nc2-c2ccc(OC)c(Cl)c2)C2CCCC2)cc1 [Entry 111, N-(2-{5-[3-chloro-4-(methyloxy)phenyl]-3-pyridin-4-yl-1H-1,2,4-triazol-1-yl}ethyl)-N-cyclopentyl-N′-[4-(ethyloxy)phenyl]urea]
- IC50: 1 to 10 µM

Structure (SMILES): COc1ccc(-c2nc(-c3ccncc3)nn2CCN(C(=O)Nc2cccc(F)c2)C2CCCC2)cc1Cl [Entry 134, N-(2-{5-[3-chloro-4-(methyloxy)phenyl]-3-pyridin-4-yl-1H-1,2,4-triazol-1-yl}ethyl)-N-cyclopentyl-N′-(3-fluorophenyl)urea]
- IC50: 1 to 10 µM

Structure (SMILES): COc1ccc(-c2nc(-c3ccncc3)nn2CCN(C(=O)Nc2ccccc2OC)C2CCCC2)cc1Cl [Entry 84, N-(2-{5-[3-chloro-4-(methyloxy)phenyl]-3-pyridin-4-yl-1H-1,2,4-triazol-1-yl}ethyl)-N-cyclopentyl-N′-[2-(methyloxy)phenyl]urea]
- IC50: ≥ 10 µM

Structure (SMILES): COc1ccc(-c2nc(-c3ccncc3)nn2CCNC(=O)Cc2cccc3ccccc23)cc1Cl [Entry 34, N-(2-{5-[3-chloro-4-(methyloxy)phenyl]-3-pyridin-4-yl-1H-1,2,4-triazol-1-yl}ethyl)-2-naphthalen-1-ylacetamide]
- IC50: 1 to 10 µM

Structure (SMILES): COc1ccc(-c2nc(-c3ccncc3)nn2CCN(C(=O)Nc2ccc(C(F)(F)F)cc2)C2CCCC2)cc1Cl [Entry 124, N-(2-{5-[3-chloro-4-(methyloxy)phenyl]-3-pyridin-4-yl-1H-1,2,4-triazol-1-yl}ethyl)-N-cyclopentyl-N′-[4-(trifluoromethyl)phenyl]urea]
- IC50: ≥ 10 µM

Source: patent US8178570B2, “Tie-2 modulators and methods of use” (Exelixis, Inc., priority 2003, dated 2012)
